Holding throughout (assay type): ADME, organism-based
Series [1] can be described thus: Volume of distribution at steady state in rat at 1 mg/kg, iv and 2 mg/kg, po. As to conditions: in vivo, read-out: Vdss.
Series [2] in a line: Cmax in rat at 2 mg/kg, po. On the set-up: dose 2 mg/kg, route oral. The conditions noted are these: in vivo.
Series [3] in a line: Oral bioavailability in rat at 2 mg/kg. The conditions noted are these: in vivo.

For orientation: Cmax means the maximum level reached in the sampled fluid or tissue. One may read the bioavailability as the share of a dose that reaches the circulation, judged against a reference dose that is usually intravenous. A higher bioavailability goes with much systemic uptake. `COc1ccc2c(c1)CC(C(=O)Nc1ccc(-c3cn[nH]c3)cc1OCCN(C)C)CO2` (centres undefined): in series [1], the Vd was found to be 1.7 L/kg. In series [2], this compound showed a maximum concentration (Cmax) of 320 nM. The compound further returned a bioavailability in series [3] of 35%.
Taken in the same sequence, the figures for `CN(C)CCOc1cc(-c2cn[nH]c2)ccc1NC(=O)C1COc2ccccc2C1` (centres undefined) were 4.6 L/kg, 170 nM and 33%.
Taken in the same sequence, the figures for `CN(C)CCOc1cc(-c2cn[nH]c2)ccc1NC(=O)C1COc2ccc(F)cc2C1` (centres undefined) were 5.9 L/kg, 100 nM and 27%.
